# Data from patent US5278146A, “CRF analogs” (The Salk Institute for Biological Studies, priority 1992, dated 1994).
# Where no end group is shown, it is not given here. [ ]: non-standard residue; d: D form. Nle = CCCC[C@H](N)C(=O)O; Nva = CCC[C@H](N)C(=O)O
# Legend:
# [1] = In vivo testing (procedure of C. Rivier et al., Science 218, 377): duration of potency and blood pressure; details: for Lowering of blood pressure: administered peripherally (where stated)
# [2] = tested on: cultured rat pituitary cells; experiment: Secretion of ACTH and β-endorphin by cultured rat pituitary cells; format: cell-based; details: for Stimulation of the secretion of ACTH and β-END-LI: general procedure of Example III
# Description: The synthetic peptide [D-Glu^20 ]-oCRF is examined for its effects on the secretion of ACTH and β-endorphin vitro and was also in vivo. The potency of synthetic [D-Glu^20 ]-oCRF to stimulate the secretion of ACTH and β-endorphin by cultured rat pituitary cells is measured using the procedure as generally set forth in Endocrinology, 91, 562 (1972) and compared against synthetic oCRF.
# [3] = tested on: ACTH and β-endorphin-like activities (β-END-LI); details: in vitro and in vivo; cited from earlier work
# [4] = injected peripherally, e.g. intravenously; cited from earlier work
Compound,Lowering of blood pressure [1],Stimulation of the secretion of ACTH and β-END-LI [2],also measured
CC[C@H](C)[C@H](NC(=O)[C@@H](NC(=O)[C@H](CC(=O)O)NC(=O)[C@H](CC(C)C)NC(=O)[C@H](CC(C)C)NC(=O)[C@H](CC(C)C)NC(=O)[C@H](CCCNC(=N)N)NC(=O)[C@H](CC(N)=O)NC(=O)[C@H](CC(N)=O)NC(=O)[C@H](C)NC(=O)[C@H](C)NC(=O)[C@H](CCC(N)=O)NC(=O)[C@H](CCC(=O)O)NC(=O)[C@H](CCCCN)NC(=O)[C@H](CCC(=O)O)NC(=O)[C@H](CCCCN)NC(=O)[C@H](CCC(=O)O)NC(=O)[C@H](CCC(N)=O)NC(=O)[C@H](CCCCN)NC(=O)[C@H](CCCNC(=N)N)NC(=O)[C@H](C)NC(=O)[C@@H](CCC(=O)O)NC(=O)[C@@H](NC(=O)[C@H](CCSC)NC(=O)[C@H](CCCCN)NC(=O)[C@H](CCCNC(=N)N)NC(=O)[C@H](CC(C)C)NC(=O)[C@H](CC(C)C)NC(=O)[C@H](CCC(=O)O)NC(=O)[C@@H](Cc1ccccc1)NC(=O)[C@H](CO)NC(=O)[C@H](CC(C)C)NC(=O)[C@H](CC(=O)O)NC(=O)[C@@H](NC(=O)[C@H](CO)NC(=O)[C@@H](NC(=O)[C@@H]1CCCN1C(=O)[C@@H]1CCCN1C(=O)CNC(=O)[C@@H]1CCC(=O)N1)[C@@H](C)CC)[C@@H](C)CC)[C@@H](C)CC)[C@@H](C)CC)C(N)=O,very significant lowering of blood pressure,stimulates the secretion of ACTH and β-END-LI,
"CCCC[C@H](NC(=O)[C@@H](CCC(=O)O)NC(=O)[C@H](CC(C)C)NC(=O)[C@@H](NC(=O)[C@H](CCC(=O)O)NC(=O)[C@H](CCCNC(=N)N)NC(=O)[C@H](CC(C)C)NC(=O)[C@H](CC(C)C)NC(=O)[C@H](Cc1c[nH]cn1)NC(=O)[C@H](Cc1ccccc1)NC(=O)[C@@H](NC(=O)[C@H](CC(C)C)NC(=O)[C@H](CC(=O)O)NC(=O)[C@H](CC(C)C)NC(=O)[C@H](CO)NC(=O)[C@@H](NC(=O)[C@@H]1CCCN1C(=O)[C@@H]1CCCN1C(=O)[C@H](CCC(=O)O)NC(=O)[C@H](CCC(N)=O)NC(=O)[C@@H](N)CO)[C@@H](C)CC)[C@@H](C)O)C(C)C)C(=O)N[C@H](C(=O)N[C@@H](CCCCN)C(=O)N[C@@H](C)C(=O)N[C@@H](CC(=O)O)C(=O)N[C@@H](CCC(N)=O)C(=O)N[C@@H](CC(C)C)C(=O)N[C@@H](C)C(=O)N[C@@H](CCC(N)=O)C(=O)N[C@@H](CCC(N)=O)C(=O)N[C@@H](C)C(=O)N[C@H](Cc1c[nH]cn1)C(=O)N[C@@H](CO)C(=O)N[C@@H](CC(N)=O)C(=O)N[C@@H](CCCNC(=N)N)C(=O)N[C@@H](CCCCN)C(=O)N[C@@H](CC(C)C)C(=O)N[C@@H](CC(C)C)C(=O)N[C@@H](CC(=O)O)C(=O)N[C@H](C(=O)N[C@@H](C)C(N)=O)[C@@H](C)CC)[C@@H](C)O [[D-Glu^20, Nle^21, D-His^32]-oCRF]",very significant lowering of blood pressure,stimulates the secretion of ACTH and β-END-LI,
"CCCC[C@H](NC(=O)[C@@H](CCC(=O)O)NC(=O)[C@H](CC(C)C)NC(=O)[C@@H](NC(=O)[C@H](CCC(=O)O)NC(=O)[C@H](CCCNC(=N)N)NC(=O)[C@H](CC(C)C)NC(=O)[C@H](CC(C)C)NC(=O)[C@H](Cc1c[nH]cn1)NC(=O)[C@H](Cc1ccccc1)NC(=O)[C@@H](NC(=O)[C@H](CC(C)C)NC(=O)[C@H](CC(=O)O)NC(=O)[C@H](CC(C)C)NC(=O)[C@H](CO)NC(=O)[C@@H](NC(=O)[C@@H]1CCCN1C(=O)[C@@H]1CCCN1C(=O)[C@H](CCC(=O)O)NC(=O)[C@H](CCC(N)=O)NC(=O)[C@@H](N)CO)[C@@H](C)CC)[C@@H](C)O)C(C)C)C(=O)N[C@H](C(=O)N[C@@H](CCCCN)C(=O)N[C@@H](C)C(=O)N[C@@H](CC(=O)O)C(=O)N[C@@H](CCC(N)=O)C(=O)N[C@@H](CC(C)C)C(=O)N[C@@H](C)C(=O)N[C@@H](CCC(N)=O)C(=O)N[C@@H](CCC(N)=O)C(=O)N[C@@H](C)C(=O)N[C@@H](Cc1c[nH]cn1)C(=O)N[C@@H](CO)C(=O)N[C@@H](CC(N)=O)C(=O)N[C@@H](CCCNC(=N)N)C(=O)N[C@@H](CCCCN)C(=O)N[C@@H](CC(C)C)C(=O)N[C@@H](CC(C)C)C(=O)N[C@@H](CC(=O)O)C(=O)N[C@H](C(=O)N[C@@H](C)C(N)=O)[C@@H](C)CC)[C@@H](C)O [[D-Glu^20, Nle^21]-oCRF]",very significant lowering of blood pressure,stimulates the secretion of ACTH and β-END-LI,
CC[C@H](C)[C@H](NC(=O)[C@H](CC(=O)O)NC(=O)[C@H](CC(C)C)NC(=O)[C@H](CC(C)C)NC(=O)[C@H](CCCCN)NC(=O)[C@H](CCCNC(=N)N)NC(=O)[C@H](CC(N)=O)NC(=O)[C@H](CO)NC(=O)[C@H](Cc1c[nH]cn1)NC(=O)[C@H](C)NC(=O)[C@H](CCC(N)=O)NC(=O)[C@H](CCC(N)=O)NC(=O)[C@H](C)NC(=O)[C@H](CC(C)C)NC(=O)[C@H](CCC(N)=O)NC(=O)[C@H](CC(=O)O)NC(=O)[C@H](C)NC(=O)[C@H](CCCCN)NC(=O)[C@@H](NC(=O)[C@H](CCSC)NC(=O)[C@@H](CCC(=O)O)NC(=O)[C@H](CC(C)C)NC(=O)[C@@H](NC(=O)[C@H](CCC(=O)O)NC(=O)[C@H](CCCNC(=N)N)NC(=O)[C@H](CC(C)C)NC(=O)[C@H](CC(C)C)NC(=O)[C@H](Cc1c[nH]cn1)NC(=O)[C@H](Cc1ccccc1)NC(=O)[C@@H](NC(=O)[C@H](CC(C)C)NC(=O)[C@H](CC(=O)O)NC(=O)[C@H](CC(C)C)NC(=O)[C@H](CO)NC(=O)[C@@H](NC(=O)[C@@H]1CCCN1C(=O)[C@@H]1CCCN1C(=O)[C@H](CCC(=O)O)NC(=O)[C@H](CCC(N)=O)NC(=O)[C@@H](N)CO)[C@@H](C)CC)[C@@H](C)O)C(C)C)[C@@H](C)O)C(=O)N[C@@H](C)C(N)=O [[D-Glu^20]-oCRF],significant lowering of blood pressure,,"Duration of potency in vivo ([1]; in vivo): longer duration of potency; EC50 ([2]; cultured rat pituitary cells, read-out: Concentration at which half-maximal responses are observed (ACTH and β-endorphin secretion)): ~170 pM; Potency relative to the native hormone ([2]; in vitro, compared against synthetic oCRF): about twice as potent as the native hormone; Secretory response to maximal concentrations ([2]; maximal (1-5 nM) concentrations): at a plateau level"
Bz-Ser-Leu-Asp-Leu-Thr-D-Phe-His-Leu-Leu-Arg-Glu-Val-Leu-Glu-Nle-Ala-Arg-Ala-Glu-Gln-Leu-Ala-Gln-Gln-Ala-D-His-Ser-Asn-Arg-Lys-Leu-Nle-Glu-Ile-Ile-NH2,very significant lowering of blood pressure,stimulates the secretion of ACTH and β-END-LI,
H-D-Pro-Pro-Ile-Ser-Leu-Asp-Leu-Thr-D-Phe-His-Leu-Leu-Arg-Glu-Val-Leu-Glu- Nle-Ala-Arg-Ala-Glu-Gln-Leu-Ala-Gln-Gln-Ala-His-Ser-Asn-Arg-Lys-CML-Nle-Ile-Ile-NH2,very significant lowering of blood pressure,stimulates the secretion of ACTH and β-END-LI,
"H-SQEPPISLDLTFHLLREVL[dE][Nle]TK[dA]DQLAQQAHSNRKL[Nle]DIA-NH2 [[D-Glu^20, D-Ala^24, Nle^21,38]-oCRF]",very significant lowering of blood pressure,stimulates the secretion of ACTH and β-END-LI,
"H-SQEPPISLDLTFHLLRE[Nle]L[dE][Nle]AKAEQEAEQA[dH]LNRLLLEEA-NH2 [[Nle^18,21, D-Glu^20, D-His^32]-AHC]",very significant lowering of blood pressure,stimulates the secretion of ACTH and β-END-LI,
"H-SQEPPISLDLT[dF]HLLREML[dE]RAKAEQEAEQAALNRLLLEEA-NH2 [[D-Phe^12, D-Glu^20, Arg^21]-AHC]",very significant lowering of blood pressure,stimulates the secretion of ACTH and β-END-LI,
"H-SQEPPISLDLT[dF]HLLRE[Nle]LE[Nle]AK[dA]EQEAEQAALNRLLLEEA-NH2 [[D-Phe^12, Nle^18,21, D-Ala^24]-AHC]",very significant lowering of blood pressure,stimulates the secretion of ACTH and β-END-LI,
H-SQ[dY]PPISLDLTFHLLRE[Nle]L[dE][Nva]AK[dA]EQEAEQAALNRLLLEEA-NH2,very significant lowering of blood pressure,stimulates the secretion of ACTH and β-END-LI,
H-Ser-Gln-Glu-Pro-Pro-Ile-Ser-Leu-Asp-Leu-Thr-D-Phe-Glu-Leu-Leu-Arg-Glu-Met-T-Glu-Ile-Ala-Lys-Ala-Glu-Gln-Glu-Ala-Glu-Gln-Ala-Ala-Leu-Asn-Arg-Lys-Tyr-Leu-Glu-Glu-Val-NH2,very significant lowering of blood pressure,stimulates the secretion of ACTH and β-END-LI,
H-Ser-Glu-Glu-Pro-Pro-Ile-Ser-Leu-Asp-Leu-Thr-D-Phe-Glu-Lue-Leu-Arg-Glu-Nle-Leu-Glu-Met-Glu-Orn-Ala-Glu-Lys-Glu-Ala-Glu-Gln-Ala-Ala-Leu-Asn-Arg-Leu-Leu-Leu-Glu-Glu-Ala-NH2,very significant lowering of blood pressure,stimulates the secretion of ACTH and β-END-LI,
"H-pGlu-Glu-Pro-Pro-Ile-Ser-Leu-Asp-:-Thr-D-Phe-His-Leu-Leu-Arg-Glu-Val-Leu-Glu-Met-Ala-Arg-D-Ala-Glu-Gln-Leu-Ala-Gln-Gln-Ala-His-Ser-Asn-Arg-Lys-Leu- Met-Glu-Ile-Ile-NH2 [[pGlu^2, D-Phe^12, D-Ala^24]-rCRF(2-41)]",very significant lowering of blood pressure,stimulates the secretion of ACTH and β-END-LI,
"rCRF: rat CRF, homologous hentetracontapeptide of U.S. Pat. No. 4,489,163; same formula as human CRF (SEEPPISLDLTFHLLREVLEMARAEQLAQQAHSNRKLMEII; ends and bridges not checked; UniProt P01143 145-185, looked up)",,,Stimulation of ACTH and β-endorphin secretion / β-END-LI (background) [3]: stimulate ACTH and β-endorphin-like activities; Lowering of blood pressure (background) [4]: substantially lower blood pressure
